Patent publication US8987249B2, “Substituted 2-Aza-bicyclo[2.2.1]heptane-3-carboxylic acid (benzyl-cyano-methyl)-amides inhibitors of Cathepsin C” (Boehringer Ingelheim International GmbH, priority 2013, dated 2015)

What was measured:
[1] = target: recombinant human DPPI (Cathepsin C) (Homo sapiens (Human), UniProt P53634); experiment: Inhibition of human DPPI (Cathepsin C); type: biochemical; conditions: substrate Gly-Arg-AMC
Outline: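 Fluorescence read after 30 min room-temperature turnover of 50 μM (final) substrate by recombinant human cathepsin C, pH 6.0 MES/NaCl/DTT/BSA buffer, quenched by Gly-Phe-DMK (1 μM final). Activity as percent of vehicle after background subtraction, used for IC50.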

[2] = target: recombinant human Cathepsin K (Homo sapiens (Human), UniProt P43235); experiment: Inhibition of human Cathepsin K; type: biochemical; conditions: substrate Z-Gly-Pro-Arg-AMC
recombinant human Cathepsin K, sequence (P43235 115-329): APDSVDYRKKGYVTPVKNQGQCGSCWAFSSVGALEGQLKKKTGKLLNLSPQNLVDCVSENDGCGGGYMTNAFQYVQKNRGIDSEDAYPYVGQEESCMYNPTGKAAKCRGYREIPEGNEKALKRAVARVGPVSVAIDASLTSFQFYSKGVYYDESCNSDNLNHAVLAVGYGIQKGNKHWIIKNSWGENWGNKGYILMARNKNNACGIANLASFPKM
Outline: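 Fluorogenic Z-Gly-Pro-Arg-AMC cleavage, 60 min at room temperature, after a 10 min enzyme–compound preincubation (enzyme 2 ng/μL; compound 0.1 nM–100 μM; 1% DMSO). Buffer pH 5.5 with sodium acetate, EDTA and L-cysteine; procathepsin first activated 30 min at pH 3.5. E64 (1 μM) stop; IC50 derived from percent of vehicle signal minus background (Ex 360/Em 460 nm).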

[3] = Determination of metabolic stability with human liver microsomes; conditions: pooled human liver microsomes; for half-life at 1 μM: human, pH 7.6; for In vitro stability in human liver microsome incubations t½: 1 μM test compound, 37° C., NADPH
Method: Determination of Metabolic Stability with Human Liver Microsomes
The metabolic degradation of the test compound is assayed at 37° C. with pooled human liver microsomes. The final incubation volume of 100 μl per time point contains TRIS buffer pH 7.6 (0.1 M), magnesium chloride (5 mM), microsomal protein (1 mg/ml) and the test compound at a final concentration of 1 μM. Following a short preincubation period at 37° C., the reactions are initiated by addition of beta-nicotinamide adenine dinucleotide phosphate, reduced form (NADPH, 1 mM) and terminated by transferring an aliquot into acetonitrile after different time points. Additionally, the NADPH-independent degradation is monitored in incubations without NADPH, terminated at the last time point. The [%] remaining test compound after NADPH independent incubation is reflected by the parameter c (control) (metabolic stability). The quenched incubations are pelleted by centrifugation (10,000 g, 5 min). An aliquot of the supernatant is assayed by LC-MS/MS for the amount of parent compound.
The half-life (t½ INVITRO) is determined by the slope of the semilogarithmic plot of the concentration-time profile.

recombinant human DPPI (Cathepsin C), sequence (P53634 231-394): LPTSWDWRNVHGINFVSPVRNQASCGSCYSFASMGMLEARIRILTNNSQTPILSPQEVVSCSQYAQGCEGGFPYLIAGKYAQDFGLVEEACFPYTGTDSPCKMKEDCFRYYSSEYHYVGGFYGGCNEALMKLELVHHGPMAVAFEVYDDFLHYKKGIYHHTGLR
recombinant human DPPI (Cathepsin C), sequence (P53634 395-463): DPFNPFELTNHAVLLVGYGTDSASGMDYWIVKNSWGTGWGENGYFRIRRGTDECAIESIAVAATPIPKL
recombinant human DPPI (Cathepsin C), sequence (P53634 25-134): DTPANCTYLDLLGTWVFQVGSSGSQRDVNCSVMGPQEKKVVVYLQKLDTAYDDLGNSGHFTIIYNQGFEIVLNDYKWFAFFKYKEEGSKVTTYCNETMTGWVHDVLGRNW

Compound	IC50 [1]	IC50 [2]	half-life at 1 μM [3]	In vitro stability in human liver microsome incubations t½ [3]
N#C[C@H](Cc1ccc(-c2ccc3c(c2)COC3=O)cc1F)NC(=O)[C@H]1N[C@@H]2CC[C@H]1C2 [Example 3, (1S,2S,4R)—N-[(1S)-1-cyano-2-[2-fluoro-4-(1-oxo-3H-isobenzofuran-5-yl)phenyl]ethyl]-3-azabicyclo[2.2.1]heptane-2-carboxamide]	0.0007 µM	2.1 µM	0.95 h	–
N#C[C@H](Cc1ccc(-n2cc(-c3ccc4[nH]ccc4c3)nn2)cc1F)NC(=O)[C@H]1N[C@@H]2CC[C@H]1C2 [Example 5, (1S,2S,4R)—N-[(1S)-1-cyano-2-[2-fluoro-4-[4-(1H-indol-5-yl)triazol-1-yl]phenyl]ethyl]-3-azabicyclo[2.2.1]heptane-2-carboxamide]	0.004 µM	2.6 µM	1.53 h	–
CN1CCN(c2ccc(C[C@@H](C#N)NC(=O)[C@H]3N[C@@H]4CC[C@H]3C4)c(F)c2)CC1 [Example 6, (1S,2S,4R)—N-[(1S)-1-cyano-2-[2-fluoro-4-(4-methylpiperazin-1-yl)phenyl]ethyl]-3-azabicyclo[2.2.1]heptane-2-carboxamide]	0.0107 µM	2.5 µM	> 2.17 h	–
CN1C(=O)C(=O)c2ccc(-c3ccc(C[C@@H](C#N)NC(=O)[C@H]4N[C@@H]5CC[C@H]4C5)c(F)c3)cc21 [Example 10]	0.0015 µM	2.7 µM	> 2.17 h	–
CS(=O)(=O)c1ccc(-c2ccc(C[C@@H](C#N)NC(=O)[C@H]3N[C@@H]4CC[C@H]3C4)c(F)c2)cc1F [Example 12]	0.0019 µM	2.1 µM	> 2.17 h	–
CS(=O)(=O)c1cc(-c2ccc(C[C@@H](C#N)NC(=O)[C@H]3N[C@@H]4CC[C@H]3C4)c(F)c2)ccc1C#N [Example 14]	0.002 µM	2.7 µM	> 2.17 h	–
CN1C(=O)Cc2ccc(-c3ccc(CC(C#N)NC(=O)[C@H]4N[C@@H]5CC[C@H]4C5)c(F)c3)cc21 (stereo partly drawn) [Example 15]	0.002 µM	3.2 µM	–	2.17 h
CS(=O)(=O)c1cc(-c2ccc(CC(C#N)NC(=O)[C@H]3N[C@@H]4CC[C@H]3C4)c(F)c2)ccc1C#N (stereo partly drawn) [Example 19]	0.0028 µM	5.4 µM	> 2.17 h	–
N#CC(Cc1ccc(-c2ccc3c(c2)NC(=O)C3)cc1F)NC(=O)[C@H]1N[C@@H]2CC[C@H]1C2 (stereo partly drawn) [Example 22]	0.0033 µM	3.2 µM	> 2.17 h	–
N#C[C@H](Cc1ccc(-c2cnn(CC3CCCCO3)c2)cc1F)NC(=O)[C@H]1N[C@@H]2CC[C@H]1C2 (stereo partly drawn) [Example 28]	0.0041 µM	2.7 µM	> 2.17 h	–
CN1C(=O)Cc2ccc(-c3cc(F)c(C[C@@H](C#N)NC(=O)[C@H]4N[C@@H]5CC[C@H]4C5)cc3F)cc21 [Example 31]	0.0043 µM	7.3 µM	1.5 h	–
N#Cc1ccc(-c2ccc(CC(C#N)NC(=O)[C@H]3N[C@@H]4CC[C@H]3C4)c(F)c2)cc1F (stereo partly drawn) [Example 35]	0.0046 µM	4.4 µM	> 2.17 h	–
N#Cc1ccc(-c2ccc(C[C@@H](C#N)NC(=O)[C@H]3N[C@H]4C[C@@H]3[C@@H]3C[C@@H]34)c(F)c2)s1 [Example 40]	0.0051 µM	7.8 µM	> 2.17 h	–
CN1CCc2cc(-c3ccc(C[C@@H](C#N)NC(=O)[C@H]4N[C@@H]5CC[C@H]4C5)c(F)c3)ccc2C1=O [Example 42]	0.0053 µM	2.9 µM	> 2.17 h	–
N#C[C@H](Cc1ccc(-c2cnn(CC3CCCO3)c2)cc1F)NC(=O)[C@H]1N[C@@H]2CC[C@H]1C2 (stereo partly drawn) [Example 50]	0.0074 µM	3.6 µM	> 2.17 h	–
CS(=O)(=O)c1cc(-c2cc(F)c(CC(C#N)NC(=O)[C@H]3N[C@@H]4CC[C@H]3C4)c(F)c2)ccc1C#N (stereo partly drawn) [Example 52]	0.0076 µM	17 µM	> 2.17 h	–
N#CC(Cc1ccc(-c2cccc(C(N)=O)c2)cc1F)NC(=O)[C@H]1N[C@@H]2CC[C@H]1C2 (stereo partly drawn) [Example 53]	0.0079 µM	4.1 µM	> 2.17 h	–
CS(=O)(=O)c1ccc(-c2ccc(CC(C#N)NC(=O)[C@H]3N[C@@H]4CC[C@H]3C4)c(F)c2)cc1 (stereo partly drawn) [Example 54]	0.0082 µM	4.5 µM	> 2.17 h	–
Cc1cc(-c2ccc(CC(C#N)NC(=O)[C@H]3N[C@@H]4CC[C@H]3C4)c(F)c2)n[nH]1 (stereo partly drawn) [Example 58]	0.0084 µM	11.1 µM	> 2.17 h	–
N#C[C@H](Cc1ccc(-n2cc(C3CC3)nn2)cc1F)NC(=O)[C@H]1N[C@@H]2CC[C@H]1C2 [Example 67]	0.0096 µM	4.6 µM	1.48 h	–
CCS(=O)(=O)c1ccc(-c2ccc(CC(C#N)NC(=O)[C@H]3N[C@@H]4CC[C@H]3C4)c(F)c2)cc1 (stereo partly drawn) [Example 71]	0.0108 µM	4.8 µM	> 2 h	–
CN1Cc2cc(-c3ccc(CC(C#N)NC(=O)[C@H]4N[C@@H]5CC[C@H]4C5)c(F)c3)ccc2C1=O (stereo partly drawn) [Example 76]	0.0117 µM	5.3 µM	1.4 h	–
N#CC(Cc1ccc(-c2cnn(-c3ccccc3)c2)cc1F)NC(=O)[C@H]1N[C@@H]2CC[C@H]1C2 (stereo partly drawn) [Example 78]	0.012 µM	6.7 µM	–	2.17 h
CCC(C)(O)Cc1cn(-c2ccc(C[C@@H](C#N)NC(=O)[C@H]3N[C@@H]4CC[C@H]3C4)c(F)c2)nn1 (stereo partly drawn) [Example 82]	0.0131 µM	5.4 µM	> 2.17 h	–
CS(=O)(=O)c1ccc(-c2ccc(C[C@@H](C#N)NC(=O)[C@H]3N[C@@H]4CC[C@H]3C4)c(F)c2)c(F)c1 [Example 86]	0.0141 µM	6.8 µM	> 2.17 h	–
CS(=O)(=O)c1cccc(-c2ccc(CC(C#N)NC(=O)[C@H]3N[C@@H]4CC[C@H]3C4)c(F)c2)c1 (stereo partly drawn) [Example 88]	0.0152 µM	8.8 µM	> 2.17 h	–

Continued by falling IC50 [1], values first:

IC50 [1]	IC50 [2]	half-life at 1 μM [3]	In vitro stability in human liver microsome incubations t½ [3]	Compound
0.0156 µM	5.4 µM	> 2.17 h	–	CCC(O)Cc1cn(-c2ccc(C[C@@H](C#N)NC(=O)[C@H]3N[C@@H]4CC[C@H]3C4)c(F)c2)nn1 (stereo partly drawn) [Example 89]
0.0133 µM	5.1 µM	> 2.17 h	–	N#CC(Cc1ccc(-c2ccc(C(N)=O)cc2)cc1F)NC(=O)[C@H]1N[C@@H]2CC[C@H]1C2 (stereo partly drawn) [Example 83]
0.0119 µM	5.3 µM	> 2.17 h	–	COc1ccc(-c2cn(-c3ccc(C[C@@H](C#N)NC(=O)[C@H]4N[C@@H]5CC[C@H]4C5)c(F)c3)nn2)cc1OC [Example 77]
0.0091 µM	3.9 µM	> 2.17 h	–	CS(=O)(=O)Nc1ccc(-c2ccc(CC(C#N)NC(=O)[C@H]3N[C@@H]4CC[C@H]3C4)c(F)c2)cc1 (stereo partly drawn) [Example 62]
0.0083 µM	2.3 µM	1.58 h	–	N#C[C@H](Cc1ccc(-c2cnn(CC3CCOCC3)c2)cc1F)NC(=O)[C@H]1N[C@@H]2CC[C@H]1C2 [Example 57]
0.0082 µM	3.9 µM	> 2.17 h	–	CC(=O)N1CCC(Cn2cc(-c3ccc(C[C@@H](C#N)NC(=O)[C@H]4N[C@@H]5CC[C@H]4C5)c(F)c3)cn2)CC1 [Example 55]
0.0073 µM	6.5 µM	> 2.17 h	–	N#CC(Cc1ccc(-c2ccc3c(c2)CCNC3=O)cc1F)NC(=O)[C@H]1N[C@@H]2CC[C@H]1C2 (stereo partly drawn) [Example 49]
0.0072 µM	3.4 µM	1.4 h	–	N#C[C@H](Cc1ccc(-n2cc(COc3ccccc3)nn2)cc1F)NC(=O)[C@H]1N[C@@H]2CC[C@H]1C2 [Example 47]
0.0056 µM	2.2 µM	> 2.17 h	–	N#C[C@H](Cc1ccc(N2CCN3CCOCC3C2)cc1F)NC(=O)[C@H]1N[C@@H]2CC[C@H]1C2 (stereo partly drawn) [Example 43]
0.0053 µM	4.7 µM	> 2.17 h	–	N#CC(Cc1ccc(-c2ccc3c(c2)CNC3=O)cc1F)NC(=O)[C@H]1N[C@@H]2CC[C@H]1C2 (stereo partly drawn) [Example 41]
0.0045 µM	4.8 µM	> 2.17 h	–	N#C[C@H](Cc1ccc(-c2ccc(C(F)(F)F)s2)cc1F)NC(=O)[C@H]1N[C@@H]2CC[C@H]1C2 [Example 33]
0.0042 µM	1.4 µM	> 2.17 h	–	N#C[C@H](Cc1ccc(-c2ccc3c(c2)NC(=O)C3)cc1F)NC(=O)[C@H]1N[C@@H]2CC[C@H]1C2 [Example 29]
0.0037 µM	13.3 µM	1.83 h	–	CN1C(=O)Cc2ccc(-c3ccc(C[C@@H](C#N)NC(=O)[C@H]4N[C@@H]5CC[C@H]4C5)c(F)c3F)cc21 [Example 24]
0.0031 µM	4.9 µM	> 2.17 h	–	N#C[C@H](Cc1ccc(-c2cnn(CC3CCOC3)c2)cc1F)NC(=O)[C@H]1N[C@@H]2CC[C@H]1C2 (stereo partly drawn) [Example 21]
0.0026 µM	2.1 µM	> 2.17 h	–	CS(=O)(=O)c1ccc(-c2ccc(C[C@@H](C#N)NC(=O)[C@H]3N[C@@H]4CC[C@H]3C4)c(F)c2)cc1 [Example 16]
0.0014 µM	2.6 µM	> 2.17 h	–	CS(=O)(=O)c1cccc(-c2ccc(C[C@@H](C#N)NC(=O)[C@H]3N[C@@H]4CC[C@H]3C4)c(F)c2)c1 [Example 4, (1S,2S,4R)—N-[(1S)-1-cyano-2-[2-fluoro-4-(3-methylsulfonylphenyl)phenyl]ethyl]-3-azabicyclo[2.2.1]heptane-2-carboxamide]
